For series [1], the system named is CCRF-CEM/VBL100 vinblastine-resistant cells. Put plainly: In vitro cytotoxicity against vinblastine-resistant CCRF-CEM subline. The series is classed as cell-based, human. To be noted: for IC50: Homo sapiens, CCRF-CEM. As for the experimental part:
(§1) The cytotoxicity IC50 of each compound was measured with the XTT assay using the 2,3-bis(2-methoxy-4-nitro-5-sulfophenyl)-5-[(phenylamino)carbonyl]-2H-tetrazolium hydroxide (XTT) microculture method as described in Scudiero et al., Cancer Res., 48:4827 (1988), the contents of which are hereby incorporated by reference in their entirety. The CCK-8 assay is a cell counting kit-8 (CCK-8) tetrazolium assay using a 96-well microplate (Dojindo Molecular Technologies, Inc., Rockville, Md.) (M. Ishiyama et al., Biol. Pharm. Bull. 19: 1518, 1996). Absorbance was measured by Powerwave a XS microplate spectrophotometer. This method described is considered a general method in vitro cytotoxicity studies.
(§2) The data in Tables 2X, 3A-E, 4, 5, and 6 were obtained using the cell counting kit-8 (CCK-8) tetrazolium assay in a 96-well microplate. Five to seven concentrations of each compound in triplicate were used, and the IC50 values were determined by CompuSyn software automation (Chou T C. and Martin N. ComboSyn, Inc., 2006) based on the median-effect equation and plot (Chou T C. J. Theor. Biol. 59:235-276, 1976; Chou T C. Pharmacol. Rev. 58: 621-681, 2006). […] The r value defines the correlation coefficient of the median-effect plot which signifies the conformity to the mass-action law principle (Chou T C. J. Theor. Biol. 59:235-276, 1976; Chou T C. Pharmacol. Rev. 58:621-681, 2006). These parameters were determined by CompuSyn simulation (available at http://www.combosyn.com).
(§3) CCRF-CEM human T-cell acute lymphoblastic leukemia cells and the corresponding vinblastine-resistant cells (CCRF-CEM/VBL100) were cultured at an initial density of 5×10^4 cells per milliliter. The cultured cells were maintained in a 5% CO2-humidified atmosphere at 37° C. in RPMI medium 1640 (GIBCO/BRL) containing penicillin (100 units/mL), streptomycin (100 μg/mL, GIBCO/BRL), and 10% heat-inactivated fetal bovine serum. The cytotoxicity of each Compound of the invention was measured using the 2,3-bis(2-methoxy-4-nitro-5-sulfophenyl)-5-[(phenylamino)carbonyl]-2H-tetrazolium hydroxide (XTT) microculture method as described in Scudiero et al., Cancer Res., 48:4827 (1988), the contents of which are hereby incorporated by reference in their entirety.
(§4) Absorbance was measured by Powerwave XS microplate spectrophotometer.

For series [2], the system named is human lymphoblastic leukemic T-cell growth. Description: Cytotoxic activity relative to stability during storage at −20° C. in DMSO (Table 10). Type of series: cell-based. To be noted: Homo sapiens, CCRF-CEM, 72 h, Table 10, XTT, 72 hr. The text has this: Without wishing to be bound by theory, the oxidized versions may be active metabolites. This theory provides an explanation of the delayed onset of therapeutic effects seen in the figures herein. The oxidized compounds may be active agents that are formed slowly upon metabolic oxidation. […] The active metabolites may explain the biphasic pharmacological properties of panaxytriol or Compound D that have been observed (FIGS. 9B, C, D; FIGS. 11D, E, F, and FIGS. 12D, E). […] Induction of the phase 2 enzymes may slow oxidation of the compounds (Ng et al., Tetrahedron Letters. 49: 7178-7179 (2008)).
Background: Tetrazolium dyes change colour on reduction, which living cells bring about.

Series [3] concerns CCRF-CEM human T-cell acute lymphoblastic leukemia cells. Put plainly: In vitro cytotoxicity against CCRF-CEM (XTT / CCK-8 tetrazolium assay, 72 hr). Conditions: for IC50: Homo sapiens, CCRF-CEM. As for the experimental part:
as §1, §2, §3, §4

Series [4] has as its system CCRF-CEM subline resistant to TAXOL. Put plainly: In vitro cytotoxicity against TAXOL-resistant CCRF-CEM subline. Type of series: cell-based, human. To be noted: for IC50: Homo sapiens, CCRF-CEM. As to the method:
as §2, §4

The test system of series [5] is AKR1C2 and AKR1C3 in human neuroblastoma IMR-32 cells. Put plainly: Induction of AKR1C enzymes, coumberone metabolism (Tables 12, 13). To be noted: inducer varied from 50 nM to 60 μM. As for the experimental part: (§5) Compounds were screened for AKR1C enzyme activity as set forth in Halim, M.; Yee, D. J. and Sames, D. J. Am. Chem. Soc. 2008, […], 14123-14128. […] Specifically, coumberone metabolism studies in IMR-32 can be done as follows: Early-passage (<P25) IMR-32 cells were seeded at a density of 4×10^4 cells/well in 96-well dish. They were then treated with the various inducers or DMSO vehicle (0.5% v/v) control. The concentration of each inducer was varied from 50 nM to 60 μM and the cells were incubated with these for either 24 or 48 hours. 72 hours after seeding, the media was removed and 100 μL of experimental media (DMEM without phenol red supplemented with 100 units/ml penicillin, 100 μg/ml streptomycin, 4 mM L-glutamine and 1% charcoal-dextran treated FBS) was added and incubated for 2 hrs. 100 μl more of the experimental media containing Coumberone (final concentration of 5 μM) was then added. The fluorescence of the cell culture medium was recorded on a plate reader MicroMax 384 connected to a Jobin Yvon Fluorolog by detecting fluorescence at 510 nm upon excitation at 385 nm. The reading was taken every 6 hours for 72 hours. Metabolic conversion rate was obtained by measuring the change in fluorescence per hour for the first 36 hours. The relative increase in metabolic rate was calculated by dividing the metabolic conversion rates of cells incubated with the activator compounds with those incubated with DMSO vehicle. […] Fold-induction is the increase metabolic activity of the reporter. […] “None” indicates no observed induction.
The IMR-32 induction assay was run as follows. Early-passage (<P25) IMR-32 cells were seeded at a density of 4×10^4 cells/well in 96-well dish. They were then treated with the various inducers or DMSO vehicle (0.5% v/v) control. The concentration of each inducer was varied from 50 nM to 60 μM and the cells were incubated with these for either 24 or 48 hours. 72 hours after seeding, the media was removed and 100 μL of experimental media (DMEM without phenol red supplemented with 100 units/ml penicillin, 100 μg/ml streptomycin, 4 mM L-glutamine and 1% charcoal-dextran treated FBS) was added and incubated for 2 hrs. 100 μl more of the experimental media containing Coumberone (final concentration of 5 μM) was then added. The fluorescence of the cell culture medium was recorded on a plate reader MicroMax 384 connected to a Jobin Yvon Fluorolog by detecting fluorescence at 510 nm upon excitation at 385 nm. The reading was taken every 6 hours for 72 hours. Metabolic conversion rate was obtained by measuring the change in fluorescence per hour for the first 36 hours. The relative increase in metabolic rate was calculated by dividing the metabolic conversion rates of cells incubated with the activator compounds with those incubated with DMSO vehicle. […] J. Am. Chem. Soc. 2008, 130, 14123-[…].

The test system of series [6] is human neuroblastoma IMR-32 cells. Description: 50% toxicity in the IMR-32 induction assay (Table 12). The series is classed as cell-based. To be noted: Homo sapiens, IMR-32, read-out: 50% toxicity in IMR-32 cells. As for the experimental part: as §5
Where [7] appears, read: 72 h, read-out: IC50 CCRF-CEM, Table 3D, CCK-8, 72-hr incubation.
Where [8] appears, read: read-out: IC50 (in μM), cytotoxic potency against cancer cell line growth in vitro, Table 3C, cell line not given.
Setting [9] is: 72 h, Table 3D, CCK-8, 72-hr incubation, read-out: IC50 CCRF-CEM/Vinblastine.
The mark [10] stands for this setting: Table 3D, CCK-8, 72-hr incubation, read-out: IC50 CCRF-CEM/TAXOL.
Setting [11] is: read-out: IC50 CCRF-CEM, Table 3E.
The mark [12] stands for this setting: Table 3E, read-out: IC50 CCRF-CEM/Vinblastine.
The mark [13] stands for this setting: Table 3E, read-out: IC50 CCRF-CEM/TAXOL.

Each structure is given as a SMILES string. Where two headings read alike, the source gives them in different places.

We go through 12 compounds from patent US8859615B2, “Compounds, compositions and methods for reducing toxicity and treating or preventing diseases” (priority 2008, dated 2014).

Regarding `C=CC(=O)C#CC#CC[C@H]1OC(C)(C)O[C@@H]1CCCCCCC` [Compound (C)], the “fold resistance in brackets (IC50 CCRF-CEM/VBL vs CCRF-CEM)” value in series [1] (Table 3) is 1.19 x. Besides, the IC50 was 2.68 µM in series [2] (Aug. 22, 2003 (Stored), same solution kept at −20° C. in DMSO, read-out: IC50 in μM CCRF-CEM); 3.9 µM in series [2] (Aug. 22, 2003 (Stored), same solution kept at −20° C. in DMSO, read-out: IC50 in μM CCRF-CEM/VBL); 0.404 µM in series [2] (Jul. 25, 2003 (Fresh), read-out: IC50 in μM CCRF-CEM); 0.7 µM in series [2] (Jul. 25, 2003 (Fresh), read-out: IC50 in μM CCRF-CEM/VBL).

In the case of `C=CC(C)(O)C#CC#CC[C@H]1OC(C)(C)O[C@@H]1CCCCCCC` (stereo partly shown) [Compound (G)], the IC50 in series [3] (setting [7]) worked out at 3.77 ± 0.48 µM; in series [3] (setting [8]), 3.77 µM; in series [1] (setting [9]), 7.3 µM; in series [4] (setting [10]), 6.16 µM.

As for `C=C[C@H](C#CC#CC[C@H]1OC(C)(C)O[C@@H]1CCCCCCC)OC(C)=O` [Compound (F)], the IC50 in series [3] (setting [7]) came out at 3.88 ± 0.85 µM; in series [3] (setting [8]) it was 3.88 µM; in series [1] (setting [9]) it was 8.56 µM; in series [4] (setting [10]), 7.58 µM.

For the compound `CCCCCCC[C@H]1OC(C)(C)O[C@@H]1Cc1ccc(C(O)CC)cc1` (stereo partly drawn) [Compound (P), 1-(4-(((4R,5R)-5-heptyl-2,2-dimethyl-1,3-dioxolan-4-yl)methyl)phenyl)propan-1-ol], the IC50 in series [3] (setting [11]) is 4.18 µM; in series [1] (setting [12]), 5.14 µM; in series [4] (setting [13]) it was 11.9 µM.

As to `CCCCCCC[C@H]1OC(C)(C)O[C@@H]1Cc1ccc(C=O)cc1` [Compound (N), 4-(((4R,5R)-5-heptyl-2,2-dimethyl-1,3-dioxolan-4-yl)methyl)benzaldehyde], the IC50 stood at 12.6 µM in series [3] (setting [11]), 13.6 µM in series [1] (setting [12]) and 19.4 µM in series [4] (setting [13]).

As to `CCCCCCC[C@H]1OC(C)(C)O[C@@H]1CC#CC#C/C=C/CO` [Compound (L)], the IC50 worked out at 1.92 ± 0.16 µM in series [3] (setting [7]), 1.92 µM in series [3] (setting [8]), 2.76 µM in series [1] (setting [9]) and 2.91 µM in series [4] (setting [10]).

As for `C=C[C@H](C#CC#CC[C@H]1OC(C)(C)O[C@@H]1CCCCCCC)OC` [Compound (H)], the IC50 in series [3] (setting [7]) is 21.6 µM; in series [3] (setting [8]), 21.6 µM; in series [1] (setting [9]), 26.6 µM; in series [4] (setting [10]) it was 15.1 µM.

On to `CC[C@]1(O)C[C@@H]2CN(CCc3c([nH]c4ccccc34)[C@@](C(=O)OC)(c3cc4c(cc3OC)N(C)[C@H]3[C@@](O)(C(=O)OC)[C@H](OC(C)=O)[C@]5(CC)C=CCN6CC[C@]43[C@@H]65)C2)C1` [Vinblastine], for which the IC50 in series [3] (72 h, read-out: CCRF-CEM (IC50 in μM), Table 3A-2, CCK-8, 72-hr exposure) was found to be 0.0011 µM; in series [1] (72 h, Table 3A-2, CCK-8, 72-hr exposure, read-out: CCRF-CEM/VBL (IC50 in μM)), 0.669 µM; in series [4] (Table 3A-2, CCK-8, 72-hr exposure, read-out: CCRF-CEM/TAXOL (IC50 in μM)), 0.282 µM. Besides, the “Fold of resistance (IC50 ratio CCRF-CEM/VBL vs CCRF-CEM)” value in series [1] (Table 3A-2) was 608 fold. Further, the “Fold of resistance (IC50 ratio CCRF-CEM/TAXOL vs CCRF-CEM)” value in series [4] (Table 3A-2) is recorded as 256 fold.

For the compound `C=CC(O)c1ccc(C[C@H]2OC(C)(C)O[C@@H]2CCCCCCC)cc1` (stereo partly drawn) [Compound (O), 1-(4-(((4R,5R)-5-heptyl-2,2-dimethyl-1,3-dioxolan-4-yl)methyl)phenyl)prop-2-en-1-ol], the figures for the IC50 in series [3] (setting [11]), in series [1] (setting [12]) and in series [4] (setting [13]) were 5.25 µM, 6.52 µM and 10.3 µM, respectively.

With `C[C@@]12COC(=O)[C@]1(C)[C@@H]1O[C@]3(C)[C@@H](O)C[C@]24OC(=O)CC134` (stereo partly shown) [Compound 31], the “Fold induction of AKR1C2 and AKR1C3 in IMR-32 cells (result in words)” value in series [5] is “None”. The IC50 in series [6] is more than 40 µM.

Turning to `C=C[C@H](C#CC#CC[C@H]1OC(C)(C)O[C@@H]1CCCCCCC)OC(=O)/C=C/c1ccccc1` [Compound (E)], the “anti-cancer activity in the in vitro cytotoxicity assay” value in series [3] is recorded as “active against cancer”. The IC50 in series [3] (setting [7]) was found to be 642 µM; in series [3] (setting [8]) it was 642 µM; in series [1] (setting [9]), 106 µM; in series [4] (setting [10]) it was 156 µM. In series [1] (Table 3D, given as x or -fold), the “fold of cross-resistance (CCRF-CEM/Vinblastine vs parent cell line)” value is listed as 0.17 fold. The “fold of cross-resistance (CCRF-CEM/TAXOL vs parent cell line)” value in series [4] (Table 3D, given as x or -fold) was determined as 0.24 fold.

Regarding `CC1=C[C@@H]2OC[C@@H]3C[C@@]4(O)C[C@]3(C)[C@]2(CC1)CO4` [Compound 34], in series [5], the “Fold induction of AKR1C2 and AKR1C3 in IMR-32 cells (result in words)” value is “None”. The IC50 in series [6] was more than 40 µM.
